The values that follow come from paper PMC10865871, “Homologous acetone carboxylases select Fe(II) or Mn(II) as the catalytic cofactor” (mBio, 2023).

Assay [1] concerns the target T1, A. aromaticum AC (acetone carboxylase, (αβγ)2) (Aromatoleum aromaticum, UniProt Q5P1N4+Q5P1N5).
T1 construct: gene acxB; recombinant in E. coli BL21(DE3), pET-Duet vectors; N-terminal 6-His tag on beta subunit; (αβγ)2 heterohexamer; with Acetone carboxylase gamma subunit
T1 sequence (Q5P1N4 1-774): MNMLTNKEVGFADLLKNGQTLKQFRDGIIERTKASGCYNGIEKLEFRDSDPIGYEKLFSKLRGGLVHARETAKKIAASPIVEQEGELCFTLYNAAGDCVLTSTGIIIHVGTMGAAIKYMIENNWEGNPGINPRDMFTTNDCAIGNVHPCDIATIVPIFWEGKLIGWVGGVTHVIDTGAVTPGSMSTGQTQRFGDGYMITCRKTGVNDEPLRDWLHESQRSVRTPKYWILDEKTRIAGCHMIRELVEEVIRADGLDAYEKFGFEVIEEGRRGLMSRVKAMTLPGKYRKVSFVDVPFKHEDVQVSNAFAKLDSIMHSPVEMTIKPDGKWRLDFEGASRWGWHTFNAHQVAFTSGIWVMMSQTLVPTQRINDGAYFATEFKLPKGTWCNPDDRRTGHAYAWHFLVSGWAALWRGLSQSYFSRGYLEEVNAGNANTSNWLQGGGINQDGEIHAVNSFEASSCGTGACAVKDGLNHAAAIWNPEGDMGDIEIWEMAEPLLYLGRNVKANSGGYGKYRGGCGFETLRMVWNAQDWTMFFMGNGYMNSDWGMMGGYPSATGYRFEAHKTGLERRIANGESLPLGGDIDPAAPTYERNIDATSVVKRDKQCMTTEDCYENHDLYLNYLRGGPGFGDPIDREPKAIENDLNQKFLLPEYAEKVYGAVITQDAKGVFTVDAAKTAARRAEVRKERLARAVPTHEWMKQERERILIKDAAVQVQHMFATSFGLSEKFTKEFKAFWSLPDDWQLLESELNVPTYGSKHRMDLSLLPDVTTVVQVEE
T1 sequence (Q5P1N5 1-716): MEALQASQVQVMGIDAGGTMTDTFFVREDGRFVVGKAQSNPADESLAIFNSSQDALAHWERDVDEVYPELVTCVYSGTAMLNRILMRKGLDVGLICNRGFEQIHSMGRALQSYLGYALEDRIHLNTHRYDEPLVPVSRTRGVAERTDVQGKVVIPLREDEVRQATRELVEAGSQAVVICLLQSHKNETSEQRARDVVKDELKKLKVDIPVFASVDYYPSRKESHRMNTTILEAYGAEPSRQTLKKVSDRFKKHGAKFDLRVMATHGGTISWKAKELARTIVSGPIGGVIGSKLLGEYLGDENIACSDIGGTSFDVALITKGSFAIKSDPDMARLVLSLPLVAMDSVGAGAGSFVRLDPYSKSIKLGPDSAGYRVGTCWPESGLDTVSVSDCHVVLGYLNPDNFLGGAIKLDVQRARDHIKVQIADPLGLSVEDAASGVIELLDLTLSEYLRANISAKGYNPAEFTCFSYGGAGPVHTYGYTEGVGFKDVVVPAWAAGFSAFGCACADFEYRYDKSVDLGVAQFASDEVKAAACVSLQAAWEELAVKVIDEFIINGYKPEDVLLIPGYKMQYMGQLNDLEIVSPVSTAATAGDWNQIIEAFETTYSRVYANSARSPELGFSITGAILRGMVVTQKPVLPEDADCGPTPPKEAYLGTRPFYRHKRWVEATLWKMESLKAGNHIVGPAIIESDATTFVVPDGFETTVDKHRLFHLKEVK
T1 sequence (Q5P1N3 1-168 partner): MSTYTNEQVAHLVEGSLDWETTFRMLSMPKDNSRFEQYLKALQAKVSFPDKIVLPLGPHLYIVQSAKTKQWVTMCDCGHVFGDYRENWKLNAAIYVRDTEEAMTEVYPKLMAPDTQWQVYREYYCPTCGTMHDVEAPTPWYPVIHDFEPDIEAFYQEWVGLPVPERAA
The experiment in a line: […] Moessbauer; EPR of Mn(II)-reconstituted enzyme. The assay is classed as binding. Particulars: 1 mM AMP, pH 7.6, 57Fe(II)-reconstituted, 80 K (Moessbauer); 10 mM AMP, 1 mM MgCl2 (EPR).

The target in assay [2] is T2, X. autotrophicus AC (acetone carboxylase, (αβγ)2) (Xanthobacter versatilis, UniProt Q8RM03+Q8RM04).
T2 construct: gene acxB; recombinant in E. coli BL21(DE3), pET-Duet vectors; N-terminal 6-His tag on beta subunit; (αβγ)2 heterohexamer; AMP site in beta, metal site in alpha; with Acetone carboxylase gamma subunit
T2 sequence (Q8RM03 1-776): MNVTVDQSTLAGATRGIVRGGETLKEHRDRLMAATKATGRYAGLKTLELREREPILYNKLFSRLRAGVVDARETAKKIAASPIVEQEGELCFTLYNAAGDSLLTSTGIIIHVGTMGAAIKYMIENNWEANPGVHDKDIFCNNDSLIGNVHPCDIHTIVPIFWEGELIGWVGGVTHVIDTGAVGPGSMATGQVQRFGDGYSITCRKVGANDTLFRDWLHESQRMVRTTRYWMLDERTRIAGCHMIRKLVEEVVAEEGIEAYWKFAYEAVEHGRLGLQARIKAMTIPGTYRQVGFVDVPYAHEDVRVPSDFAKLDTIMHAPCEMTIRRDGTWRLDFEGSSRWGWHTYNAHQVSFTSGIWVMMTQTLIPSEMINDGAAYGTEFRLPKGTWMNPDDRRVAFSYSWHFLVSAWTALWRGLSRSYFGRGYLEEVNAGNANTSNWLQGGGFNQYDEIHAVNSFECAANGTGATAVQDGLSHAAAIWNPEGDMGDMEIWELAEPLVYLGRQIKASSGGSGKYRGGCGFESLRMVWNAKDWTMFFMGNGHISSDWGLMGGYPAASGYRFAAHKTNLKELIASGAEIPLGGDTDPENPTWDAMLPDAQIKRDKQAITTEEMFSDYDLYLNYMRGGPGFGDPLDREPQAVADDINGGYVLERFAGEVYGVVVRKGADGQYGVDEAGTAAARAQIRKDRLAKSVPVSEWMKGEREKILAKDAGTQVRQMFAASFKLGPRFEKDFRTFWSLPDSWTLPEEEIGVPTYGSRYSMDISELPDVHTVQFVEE
T2 sequence (Q8RM04 1-717): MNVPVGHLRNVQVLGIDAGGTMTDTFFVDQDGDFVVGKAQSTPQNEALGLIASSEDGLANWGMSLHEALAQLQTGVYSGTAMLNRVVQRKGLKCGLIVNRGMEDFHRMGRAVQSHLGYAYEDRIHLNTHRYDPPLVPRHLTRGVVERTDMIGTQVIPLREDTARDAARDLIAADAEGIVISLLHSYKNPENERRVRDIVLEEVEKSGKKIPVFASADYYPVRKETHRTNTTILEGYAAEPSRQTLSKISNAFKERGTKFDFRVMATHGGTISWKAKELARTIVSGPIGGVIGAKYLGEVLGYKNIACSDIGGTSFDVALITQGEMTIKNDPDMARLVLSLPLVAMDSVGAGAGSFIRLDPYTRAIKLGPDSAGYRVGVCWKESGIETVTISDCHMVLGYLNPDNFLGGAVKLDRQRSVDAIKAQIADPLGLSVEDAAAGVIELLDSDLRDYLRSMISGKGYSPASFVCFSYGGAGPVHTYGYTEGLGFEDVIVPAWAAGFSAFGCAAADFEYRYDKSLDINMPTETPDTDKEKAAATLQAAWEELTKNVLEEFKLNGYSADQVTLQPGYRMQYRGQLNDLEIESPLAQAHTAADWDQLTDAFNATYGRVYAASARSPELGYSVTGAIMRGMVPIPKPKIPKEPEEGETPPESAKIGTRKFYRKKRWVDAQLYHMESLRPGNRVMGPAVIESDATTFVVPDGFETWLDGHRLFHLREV
T2 sequence (Q8RM02 2-168 partner): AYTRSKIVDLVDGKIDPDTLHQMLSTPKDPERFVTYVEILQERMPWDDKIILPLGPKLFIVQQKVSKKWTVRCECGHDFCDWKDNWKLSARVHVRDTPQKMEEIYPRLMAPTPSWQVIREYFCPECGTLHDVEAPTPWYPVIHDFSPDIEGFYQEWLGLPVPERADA
The experiment in a line: EPR of active-site Mn(II); […] Moessbauer. The assay is classed as binding. Particulars: 10 mM AMP, 1 mM MgCl2, pH 7.6, 12 K (EPR); Mn(II)-bound enzyme.

Turning to `Nc1ncnc2c1ncn2[C@@H]1O[C@H](COP(=O)(O)O)[C@@H](O)[C@H]1O` [AMP], in assay [1], the “57Fe Moessbauer; EPR of Mn(II)-reconstituted enzyme” value is “three of which (blue, red, and orange) were affected by the addition of AMP”. In addition, the “EPR of active-site Mn(II); 57Fe Moessbauer” value in assay [2] is “Upon the addition of MgAMP, the apparent Mn(II) signal sharpened and intensified”.
